For two molecules, IC50 results are on record in publication PMC3855387, “AMPK Activation through Mitochondrial Regulation Results in Increased Substrate Oxidation and Improved Metabolic Parameters in Models of Diabetes” (PLoS ONE, 2013).

The target in test [1] is T1, respiratory complex I (mitochondrial complex I) (Mus musculus, UniProt P03888+Q91WD5+Q9DC70).
T1 construct: gene Ndufs2; native complex in mouse liver mitochondrial lysate
As to the kind of experiment: NADH oxidation (A340) in mouse liver mitochondrial lysate; succinate rescue of respiration in isolated mitochondria. It is filed as biochemical.

Test [2] deals with T1, respiratory complex I (mitochondrial complex I). As to the kind of experiment: NADH oxidation (A340) in mouse liver mitochondrial lysate. It is filed as biochemical.

One may read the IC50 as the point on the concentration scale where inhibition reaches its midpoint. Low readings indicate greater potency in that assay, high ones weaker potency in that assay.

For `COc1ccc(C(=O)C2CCN(C(=O)c3ccc(C(=O)NC4CCN(Cc5ccc(C#N)cc5)CC4)cn3)CC2)cc1` [R419, N-(1-(4-cyanobenzyl)piperidin-4-yl)-6-(4-(4-methoxybenzoyl)piperidine-1-carbonyl)nicotinamide], the IC50 in test [1] worked out at 82 nM. Take `CN(C)C(=N)N=C(N)N` [metformin]: the IC50 in test [2] came to 27 mM.
